Data reported in US20170049100A1 (priority 2014, published 2017).
In brackets after ≈: the same amount, converted by molar mass. Like-named read-outs stand apart in the source and are kept apart here.

Experiments:
Phytophthora infestans [1] = assay: microbe, parasite or virus in culture; format: cell-based; settings: for EC50: Phytophthora infestans, 120 h
[2] = cited from earlier work
Phytophthora infestans [3] = format: in vivo; settings: preventive; 3 and 6 I/ha; after incubating for 5 days
Phytophthora infestans [4] = format: in vivo; settings: applied at the same time as Phytophthora infestans; 5 or 7 days; 0.5-1-3-6 L/ha

SMILES | Effectiveness of 2-ethyl-hexanol (% of control) (Phytophthora infestans [1]; 0.000512 μg 2-ethyl-hexanol/mL) | Effectiveness of 2-ethyl-hexanol (% of control) (Phytophthora infestans [1]; 0.00256 μg 2-ethyl-hexanol/mL) | Effectiveness of 2-ethyl-hexanol (% of control) (Phytophthora infestans [1]; 0.0128 μg 2-ethyl-hexanol/mL) | Effectiveness of 2-ethyl-hexanol (% of control) (Phytophthora infestans [1]; 0.064 μg 2-ethyl-hexanol/mL) | Effectiveness of 2-ethyl-hexanol (% of control) (Phytophthora infestans [1]; 0.32 μg 2-ethyl-hexanol/mL) | Effectiveness of 2-ethyl-hexanol (% of control) (Phytophthora infestans [1]; 1.6 μg 2-ethyl-hexanol/mL) | Effectiveness of 2-ethyl-hexanol (% of control) (Phytophthora infestans [1]; 8 μg 2-ethyl-hexanol/mL) | EC50 (Phytophthora infestans [1]) | biodegradable ([2]; in 5 days) | Effectiveness of octanol (% of control) (Phytophthora infestans [1]; 0.000512 μg octanol/mL) | Effectiveness of octanol (% of control) (Phytophthora infestans [1]; 0.00256 μg octanol/mL) | Effectiveness of octanol (% of control) (Phytophthora infestans [1]; 0.0128 μg octanol/mL) | Effectiveness of octanol (% of control) (Phytophthora infestans [1]; 0.064 μg octanol/mL) | Effectiveness of octanol (% of control) (Phytophthora infestans [1]; 0.32 μg octanol/mL) | Effectiveness of octanol (% of control) (Phytophthora infestans [1]; 1.6 μg octanol/mL) | Effectiveness of octanol (% of control) (Phytophthora infestans [1]; 8 μg octanol/mL) | intensity of the infection of the potato leaves caused by Phytophthora infestans (Phytophthora infestans [3]) | development of the pathogen on the surface of potato leaves (Phytophthora infestans [4]) | biodegradable ([2]; in 30 days)
CCCCC(CC)CO (centres unmarked) [2-ethyl-hexanol] | 16.1 % of control | 42.3 % of control | 60.1 % of control | 71.7 % of control | 79.8 % of control | 82.2 % of control | 84.6 % of control | 6.8 ng/mL (≈ 0.0522 µM) | 100% | – | – | – | – | – | – | – | – | – | –
CCCCCCCCO [octanol, octan-1-ol] | – | – | – | – | – | – | – | 2.7 ng/mL (≈ 0.0207 µM) | – | 23.6 % of control | 49.4 % of control | 72.2 % of control | 84.8 % of control | 92.5 % of control | 93.3 % of control | 94.0 % of control | greatly reduces | completely inhibits | more than 70%
